Source: patent publication US9643973B1, “Crystalline form of diclosulam, a process for its preparation and use of the same” (Rotam Agrochem International Company Limited, priority 2016, dated 2017)
Read-outs that look alike come from different tables or passages of the source.

Assays:
[1] = Viscosity (stated in words, no method given); format: physicochemical
[2] = format: physicochemical; conditions: for Concentration measured by HPLC after treatment: pH 7 buffer, 20° C.
Experimental: A stock pH 7 buffer solution was prepared by adding aqueous sodium hydroxide solution (0.1 M, 145 mL) to aqueous potassium dihydrogen phosphate solution (0.1 M, 250 mL), and then adding sufficient distilled water to adjust the final volume to 500 mL. At least 1 time and up to about 5 times the amount of diclosulam needed for saturation was added to a mixing vessel containing stock buffer solution at the test temperature (e.g., 20° C.). The mixture was magnetically stirred in the dark while being maintained at the test temperature and the samples were intermittently and periodically removed for analysis. The samples were centrifuged using a high speed, temperature-controlled centrifuge at the test temperature for about 20 minutes at ≧12000 G to remove suspended particles. An aliquot of each supernatant was taken for analysis. The concentration of diclosulam in the supernatant was determined by a high pressure liquid chromatography (HPLC) with a reversed phase chromatography column and UV detection. The method should include development of best-fit calibration curves based on at least three standards using linear regression analysis Samples were successively withdrawn from the mixing vessel and analyzed until three successive samples show little or no variation in concentration. The test is preferably replicated to ensure accuracy.

[3] = OD formulation, original concentration 40%
[4] = SG formulation, original concentration 25%
[5] = WG formulation, original concentration 25%

With CCOc1nc(F)cc2nc(S(=O)(=O)Nc3c(Cl)cccc3Cl)nn12 [Amorphous diclosulam, 2′,6′-dichloro-5-ethoxy-7-fluoro[1,2,4]triazolo[1,5-c]pyrimidine-2-sulfonanilide, reference compound] the “Viscosity (in words)” value ([1]; listed as diclosulam in amorphous state) was “highly viscous”, the “Concentration measured by HPLC after treatment” value (“Concentration measured by HPLC” below) [2, 3] was 14% and the “Concentration measured by HPLC” value [2, 4] was 15%. The “Concentration measured by HPLC” value [2, 5] was 12%.

In the case of CCOc1nc(F)cc2nc(S(=O)(=O)Nc3c(Cl)cccc3Cl)nn12 [Diclosulam, crystalline modification I, 2′,6′-dichloro-5-ethoxy-7-fluoro[1,2,4]triazolo[1,5-c]pyrimidine-2-sulfonanilide], the “Viscosity (in words)” value ([1]; listed as crystalline modification I of diclosulam) is reported as “significant decrease”, the “Solubility (in words)” value [2] is reported as “significant increase” and the “Concentration measured by HPLC” value [2, 3] is reported as 35%. For the same molecule, the “Concentration measured by HPLC” value [2, 4] was 24.9% and the “Concentration measured by HPLC” value [2, 5] was 23%.
